Experimental data reported in patent publication US8158577B2, “Modulation of cartilage homeostasis by active domains of cell binding extracellular matrix molecules” (priority 2004, dated 2012).
“Also recorded” adds a separate entry of the source.

Legend:
[1] = Heparin binding on Heparin-Sepharose; conditions: eluted with NaCl (0.5, 1, 2M); Western blot or MALDI-TOF MS
Experimental: Intact recombinant protein (10 μg, EBNA-cell expressed) diluted in PBS was passed over Heparin-Sepharose (Amersham Pharmacia) (1 ml), washed with 20 volumes of PBS and eluted with 2 M NaCl (6×1 ml). Eluted material was precipitated with ethanol, separated by SDS-PAGE (10%) and visualized by western blot (CHAD ab α-80, Larsson et al). The peptide CKFPTKRSKKAGRH (SEQ ID No:7) was diluted in PBS and passed over heparin-sepharose (100 μl), the column was washed with 20 volumes PBS and bound material eluted with 0.5, 1, and 2M NaCl (3 column volumes of each).
Recombinant chondroadherin (10 or 100 μg) expressed in EBNA-cells was passed over Heparin-Sepharose-column (Pharmacia). The column was washed and eluted with 2M NaCl in PBS. Eluted material was separated on SDS-PAGE (10%) and detected by western blot using a chondroadherin antibody (see FIG. 4). The band at 36 kDa represents chondroadherin ant the band at 72 kDa represents a dimer of chondroadherin.
The candidate peptide CKFPTKRSKKAGRH (SEQ ID No: 7) was synthesized. The ability of the peptide to bind heparin was confirmed on heparin-sepharose, where material eluted with 0.5, 1 and 2M NaCl was identified by MALDI-TOF MS (data not shown).

K105 cells [2] = test: Adhesion of K105 cells to the coated cell binding peptides (FIG. 8); type: cell-based, human
Experimental: Tissue culture dishes were coated with 33 μg/ml (20 µM) peptide solution. The cells (50,000/well) were suspended in PBS containing 0.1% BSA, 25 U/ml collagenase and added to the wells in the presence or absence of synthetic peptide (250 μg/ml) and allowed to adhere for 1 hour at 37° C. Nonadherent cells were removed by washing. Spreading was visualized by light microscopy.

K105 cells [3] = test: Adhesion of K105 cells to collagen type II in the presence of synthetic peptide (FIG. 5C-5D); type: cell-based, human; conditions: peptide 250 μg/ml, 1 hour at 37° C.
Experimental: Tissue culture 48-wells dishes (Nunclon, Nunc, Denmark) were coated overnight with 5 μg/ml chondroadherin in 4M Guanidine-HCl, 50 mM sodium acetate, pH 5.8, or for native protein in PBS. Alternatively coating was with 5 μg/ml collagen type II in PBS followed by after-coating with 0.5% BSA in PBS for 3 hours. Collagen type II was isolated from bovine nasal cartilage by pepsin digestion (11). Bacterially expressed chondroadherin was isolated as described above. Recombinant chondroadherin expressed in EBNA cell was cloned and purified as described elsewhere (8).
To test cell binding, the chondrosarcoma cells or bovine chondrocytes were suspended in PBS containing 0.1% BSA, 25 U/ml collagenase and added to the wells (50,000/well), in the absence or presence of various peptide pools or the synthetic peptides (200, 100, 50, 25, 12.5 μg/ml). Non-adherent cells were removed after 1 hour and adhesion was determined by measuring lysosomal N-acetylglucosaminidase (12). Adhesion and spreading was visualized by light microscopy. […]
Tissue culture dishes were coated with 5 μg/ml chondroadherin expressed in E. coli or collagen type II and blocked for non-specific binding with BSA. […] Spreading was visualized by light microscopy, and adhesion was determined by analyzing lysosomal hexosaminidase. Adhesion is expressed as number of cells where the data represent the average of two wells. […]

H-CKFPTKRSKKAGRH-OH [SEQ ID No. 7]
binding to heparin-sepharose [1]: confirmed; also recorded: bind heparin
adhesion and shape of k105 cells plated on the peptide (K105 cells [2]; dishes coated with 33 μg/ml peptide, 1 hour at 37° C.): adhere and spread
inhibition of k105 adhesion to the coated peptide by the same peptide in solution (K105 cells [2]; peptide in solution 250 μg/ml): unable to inhibit adhesion
k105 cell adhesion to collagen type II in the presence of peptide (K105 cells [3]): not significantly affected
